Reference: patent publication US9060966B2, “Use of 2,5-dihydroxybenzene derivatives for the treatment of arthritis and pain” (priority 2006, dated 2015)
Entries after “also recorded” stand apart in the source; their conditions may differ.

What was measured:
Leishmania major = assay: Experimental infection with Leishmania major in a mouse model (paw thickness); assay type: in vivo, mice
Text: (§1) The vehicle group consisted of infected animals that received daily injections of saline (0.9% NaCl) during the same period as DHBS. Results are expressed as the mean±the standard deviation of the increases in size of the inoculated paw (right) compared to the non-inoculated paw (left) in mm obtained with a Vernier caliper each week from 0 to 10. ** indicates p<0.01 vs. the vehicle-treated group by a Student t-test. 6 animals were used for each group.
as §1, with “from” for “during”, “moment of the infection, while the control group consisted of non-infected animals.” for “same period as DHBS.”, “9. *” for “10. **”, “p<0.05” for “p<0.01”, “vehicle” for “vehicle-treated”, “7” for “6”
as §1, with “from” for “during”, “third week after the infection.” for “same period as DHBS.”, “9. *” for “10. **”, “p<0.05” for “p<0.01”, “vehicle” for “vehicle-treated”, “7” for “6”
This model is based in the massive inoculation of Leishmania promatigotes in the mouse paw pad. Under these conditions, the parasite induces a progressive inflammation correlated with the multiplication of parasites at the site of inoculation. BALB/c strain female mice that developed severe and uncontrolled injuries were used (Foote S J, Handman E. Brief Funct Genomic Proteomic, 2005). This model has been used in pharmacology to monitor the therapeutic capacity of new leishmanicide compounds and the preventive capacity of potential vaccines against leishmaniasis ((Nelson K G et al. Antimicrob Agents Chemother. 2006).
The animals were inoculated with 5×10^6 of L. major promastigotes (strain Hervás) in 50 μL of PBS into the plantar pad of the right back paw. As negative control of the infection, a group of mice inoculated with 50 μL of PBS was used. The sizes of the lesions were measured every 7 days until the animals were sacrificed (week 9) using a Vernier caliper. The thickness of the right back paw (infected) and the left back paw (uninfected) of all the animals was measured at the base of the fifth toe. The progression of the inflammation is represented as the difference in thickness between the infected and the non-infected paws. […]

skeletal muscle lesions = assay: Oral treatment of skeletal muscle and tendon lesions in patients (MRI, function); assay type: in vivo, human
Protocol: A and B are, respectively, front and cross sectional magnetic resonance images (MRI) showing the breaking of the left quadriceps in a patient, immediately before treatment. The presence of a large hematoma, indicated by arrows, may be observed. C and D are, respectively, front and cross sectional MRI showing the quadriceps of the same patient after treatment with 2,5-dihydroxybenzene sulfonic acid (DHBS) (500 mg/day p.o. for two weeks). […] 1 indicates the femur and 2 indicates the femoral vessels.
A is a Magnetic Resonance Image (MRI) of a patient showing the breaking of the right arm brachial biceps one day after the lesion and immediately before the treatment.
Images show the clinical manifestation of the patient referred to in FIG. 12. Before the treatment (1 day after the lesion) a large hematoma (A) and limited flexion (B) and extension (C) of the elbow are observed.
It is a Magnetic Resonance Image (MRI) of a patient showing the breaking of left leg semitendinosus muscle 9 days after the lesion and immediately before starting the treatment.
A is a Magnetic Resonance Image (MRI) of a patient showing the Achilles tendon rupture just before being treated.
The capacity of a 2,5-dihydroxybenzene derivative, the 2,5-dihydroxybenzene sulfonic acid (DHBS) to effectively treat skeletal muscle lesions is shown herein. The efficacy is evident, not only in the images of conventional diagnosis that show the recovery of the muscular damage, but also there is a clear functional recovery of the affected limb.
The first patient's left quadriceps was broken by practicing sports. […] At that moment, the patient starts a daily oral treatment with 500 mg of 2,5-dihydroxybenzene sulfonic acid (DHBS) for two weeks. […] An observation that may be applied to the other cases that support this example.
Other patient has an hematoma and muscular breaking of the brachial biceps, as shown in the magnetic resonance image (MRI) of FIG. 12A. The hematoma can be appreciated externally (FIG. 13A) and the lesion, produced by professional practice (dancing) the day before the consultation, limits the elbow flexion (FIG. 13B) and extension (FIG. 13C).

[1] = brachial biceps breaking, 1500 mg/day p.o., 20 days, one patient
[2] = left quadriceps breaking, 500 mg/day p.o., two weeks, one patient

| Structure (SMILES) | size of the lesion (infected vs non-infected paw) (Leishmania major; 200 mg/kg/day i.p. from day 0 to week 9, effect from the third week post-infection) | size of the lesion (infected vs non-infected paw) (Leishmania major; 200 mg/kg/day i.p. from third week after inoculation, effect from the eighth week) | semitendinosus muscle lesion on MRI (skeletal muscle lesions; 1500 mg/day p.o., 11 days, started 9 days after lesion, one patient) | Achilles tendon lesion on MRI (skeletal muscle lesions; 1500 mg/day p.o., two months, one patient) | elbow flexion and extension (skeletal muscle lesions; [1]) | size of the lesion and of the hematoma, brachial biceps (skeletal muscle lesions; [1]) | quadriceps hematoma on MRI (skeletal muscle lesions; [2]) | quadriceps lesion on MRI (skeletal muscle lesions; [2]) | period to functional recovery and resolution vs conventional treatments (antiinflammatories) (skeletal muscle lesions; quadriceps breaking, 500 mg/day p.o., two weeks) | flexion and extension capacity of the leg (skeletal muscle lesions; quadriceps breaking, 500 mg/day p.o., two weeks, one patient) |
| --- | --- | --- | --- | --- | --- | --- | --- | --- | --- | --- |
| CC(=O)Oc1ccc(OC(C)=O)c(S(=O)(=O)[O-])c1.[K+] [DABS, potassium 2,5-diacetoxybenzene sulfonate] | statistically significant reduction in the size of the lesion | significantly smaller; also recorded: Reduction in the size of the lesion | – | – | – | – | – | – | – | – |
| O=S(=O)(O)c1cc(O)ccc1O [DHBS, 2,5-dihydroxybenzenesulfonic acid] | – | – | reduced the muscular lesion; also recorded: remarkable reduction in the size of the lesion | marked reduction of said lesion; also recorded: remarkable reduction in the size of the lesion | recovers the functionality of the elbow flexion and extension; also recorded: have been recovered | markedly reduces the size of the lesion and of the hematoma; also recorded: remarkable reduction in the size of the lesion; also recorded: the hematoma has disappeared | can no longer be observed; also recorded: the hematoma has disappeared | recovery of the lesion in the quadriceps | shorter period | able to extend the left leg almost completely; also recorded: almost complete flexion (A) and extension (B) capacity |
